Test results published in US20250325500A1, “USE OF 5-METHOXY-2-AMINOINDAN ("MEAI") IN METHODS FOR TREATING COCAINE ADDICTION” (Clearmind Medicine Inc., priority 2022, published 2025).

What was measured:
Format in all cases: in vivo, rat
[1] = system: rats; assay: Side effects observed in rats dosed with MEAI during CPP conditioning; details: anxiety, diarrhea, secretion of vaginal plug
Method: (§1) In the CPP assay, the rats learned to associate a reward with an environmental cue. Two groups of rats were put through a three-day baseline period during which each rat was allowed to freely move during 20 minutes from a striped to a smooth compartment in a closed arena. Time measurements were taken to determine which compartment the rat spent more time in (i.e., preferred). Baseline data was determined as an average duration of time spent in each compartment. After the baseline period, a training period of 5 days was conducted in which rats were injected with saline (I.P.) in the morning and placed in the preferred compartment for 20 minutes. Four hours after the saline injection, cocaine (15 mg/kg I.P.) or MEAI (4 doses; 20, 10, 5 and 2.5 mg/kg I.P.) was injected and the rat was placed in the less preferred compartment for 20 minutes. On the 6th day, a CPP test was conducted (identical to the baseline period) to determine if MEAI imparts a reward-like effect similar to cocaine. The duration time spent in each compartment was calculated as the difference between the baseline time and the testing time (seconds) as previously described.
We started testing with 20 mg/kg of MEAI. […] Due to these side effects, we decided to test lower doses of MEAI as opposed to higher doses. Accordingly, the following dose tested was 10 mg/kg of MEAI. 51% of the rats receiving this dose had side effects, including anxiety, aggressiveness, piloerection, tremors low body posture, diarrhea, and secretion of “vaginal plug,” with a trend towards improved symptoms, although not statistically significant, compared to the 20 mg/kg dose. […] Overall, the mean that was most negative was for the dose 5 mg/kg, and therefore we decided to test the efficacy of this dose as a treatment for cocaine preference in rats.

[2] = system: cocaine preference in rats; assay: CPP test, MEAI as a treatment for cocaine preference in rats; details: rats conditioned with cocaine 15 mg/kg
Method: (§2) Two groups were tested: One group received MEAI (four different doses), while the second group received cocaine in each conditioning day. Additionally, some rats that received cocaine were treated with MEAI on the test day to determine if MEAI has a treatment-like effect.
as §1, with “Four hours after the saline injection, cocaine (15 mg/kg I.P.) or MEAI (4 doses; 20, 10, 5 and 2.5 mg/kg I.P.) was injected and the rat was placed in the less preferred compartment for 20 minutes. On the 6th day, a CPP test was conducted (identical to the baseline period) to determine if MEAI imparts a reward-like effect similar to cocaine.” left out, “described. […]” for “described.”
The two groups were divided as values below 100 seconds in a non-preferred compartment (MEAI A) and above 100 seconds (MEAI B). […] The behavioral data were analyzed with Ordinary one-way ANOVA. Data was expressed as mean±SEM and a probability value of […] was considered significant. n=5-12 rats per group. […]

[3] = system: rats; assay: Conditioned Place Preference (CPP) model, reward-like effect of MEAI; details: 5 conditioning days, test on 6th day, difference from baseline
Method: as §2, §1
In the first part of this study, we examined whether administration of MEAI in four different doses […] reward.

## COc1ccc2c(c1)CC(N)C2 (stereo not shown) [MEAI, 5-methoxy-2-aminoindan]
[1]; MEAI 2.5 mg/kg I.P.
  rats presenting side effects: 21.4%
[1]; MEAI 5 mg/kg I.P.
  rats presenting side effects: 20.2%
[1]; MEAI 10 mg/kg I.P., aggressiveness, piloerection, tremors, low body posture
  rats presenting side effects: 51%
[1]; MEAI 20 mg/kg I.P., aggressiveness, piloerection, tremors, low body posture
  rats presenting side effects: 65.7%
[2]; MEAI 5 mg/kg i.p. compared with 10 mg/kg i.p. on test day (FIG. 2)
  decrease of reward in cocaine-conditioned rats, 5 mg/kg versus 10 mg/kg: better results in decreasing reward
[2]; MEAI 5 mg/kg i.p. on test day, 10 min before test
  compartment preference of cocaine-conditioned rats after treatment: mixed
[3]; MEAI 2.5 mg/kg I.P.
  duration of time spent in a non-preferred place (reward): negative
[3]; MEAI 5 mg/kg I.P.
  duration of time spent in a non-preferred place (reward): negative
[3]; MEAI 10 mg/kg I.P.
  duration of time spent in a non-preferred place (reward): rewarding effect
[3]; MEAI 20 mg/kg I.P.
  duration of time spent in a non-preferred place (reward): low reward
